Measurements published in patent US20130338092A1, “COMPOUNDS AND METHODS FOR TARGETING LEUKEMIC STEM CELLS” (The Broad Institute, Inc., priority 2011, published 2013).
“Also recorded” adds a separate entry of the source.

Tests used:
LSC (dsRed+) = assay: Stromal pretreatment of primary MSC stroma, triple coculture, leukemia cells; assay type: cell-based, murine; settings: stroma pretreated three days, LSCs and HSPCs comingled
Procedure: (§1) In the context of primary MSC stroma (uncolored), both HSPCs (from actin-GFP mice (000329, Jackson Lab)) and LSC (dsRed+) populations were comingled together in a ratio of 2:1 within the same 384format wells. As in the stromal pretreatment screen with OP9 stroma, BRD7116 was added for three days to the stroma prior to the addition of the hematopoietic populations. 5 days after compound addition, wells were imaged in the red and green channels and total cells were counted using MetaXpress software from MDC.
(§2) This experiment was also performed in the context of primary MSC stroma. Both HSPCs and LSC populations were comingled together in the same wells, as a “triple” coculture.

HSPCs = assay: Stromal pretreatment of primary MSC stroma, triple coculture, HSPCs; assay type: cell-based, murine; settings: stroma pretreated three days, LSCs and HSPCs comingled
Procedure: as §1, §2

**Q.** For `CC1(C)C(C(=O)Nc2ccc(S(=O)(=O)c3ccc(NC(=O)C4C(C)(C)C4(C)C)cc3)cc2)C1(C)C` [BRD7116], which “leukemia cells on pretreated MSC stroma” value (LSC (dsRed+)) is on record?
**A.** selective inhibition of the leukemia cells; also recorded: an inhibition of the leukemia cells was observed

**Q.** And the “numbers of comingled HSPCs on pretreated MSC stroma” value (HSPCs)?
**A.** a decrease in the numbers of comingled HSPCs was not observed
